Source: patent US20030185956A1, “Separation method” (priority 2000, published 2003)
In brackets after ≈: the same amount, converted by molar mass.

Legend:
[1] = Separation in model membrane reactor, water to n-decane across cellulose acetate dialysis membrane; type: physicochemical; settings: for recovered into the decane / amount recovered into the decane: Example 5, after 2.5 days; for recovered into the decane: 20 g macerated grapefruit peel (nootkatone 4.3 mg, limonene 135 mg) in 35 ml water; for amount recovered into the decane: grapefruit peel
Method: (§1) Separation experiments were carried out in a small model membrane reactor which consisted of an upper and lower chamber separated by 0.002 m^2 of membrane. Thorough mixing was ensured by use of a magnetic stirrer with a separate stirring bar contained within each chamber. Membrane separations were carried out at room temperature (22° C.).
Gas Chromatography (g.c.)
Analysis of valencene, nootkatone, 1,2-epoxyoctane and 1-octene.
Column—SE-30 capillary (Alltech, Carnforth, Lancs, UK), ID 0.32 mm, film thickness 0.25 μm.
Temperature program 200° C. for 5 min. 10° C. min^−1
Injector/detector temperature—300° C.
Carrier gas-helium, head pressure 0.35 bar

[2] = Selective extraction from water into n-decane in dialysis tubing (shaken flask); type: physicochemical; settings: Example 6, 30° C., 45 hours; for amount present in the n-decane phase: 100 mg limonene + 20 mg carvone in 100 ml water, 50 ml n-decane, 150 rpm
Method: Dialysis tubing (cellulose acetate visking tubing MW cut off 12-14,000 Da) containing 50 ml n-decane was added to the flask and the whole incubated at 30° C. with shaking at 150 rpm for 45 hours.

physchem = settings: 25 °C, water
[3] = Product recovery from fungal culture broth into solvent in dialysis tubing; type: physicochemical; settings: for recovered into the n-decane: 72 h incubation, nootkatol and nootkatone approx. 3.3 mg combined, valencene approx. 150 mg
Method: Product recovery experiments were carried out in fungal or bacterial cultures or in suspensions of fungal or bacterial cells. Reaction media contained: unreacted substrate valencene at 0.3-1.4 mg ml^−1 and the reaction products nootkatol and nootkatone in concentrations ranging from 0.02-0.2 mg ml^−1. Nootkatol and nootkatone differ from the substrate valencene by the presence of only a single hydroxyl or a single keto group respectively. [drawing 1]
Dialysis tubing (as described in Example 1) pre-soaked in deionised water, containing n-hexane (50 ml) was added to each of two separate fungal cultures. On addition of hexane filled tubing, reaction mixtures contained the following:
Culture one contained culture broth and biomass (100 ml), residual valencene (approximately 35 mg) and product nootkatone (2.3 mg). Culture two contained culture broth and biomass (100 ml), residual valencene (approximately 33 mg), product nootkatone (3.8 mg), and Tween 80 (trade mark) (1.3 g).
After 48 h extraction time (30° C., shaking at 160 rpm), 96% of nootkatone had been recovered from culture broth one into n-hexane in the dialysis tubing. The remaining nootkatone was detected in the culture broth. Valencene was not detected in the n-hexane extraction solvent. The efficiency of extraction from culture broth two was 68%. The remaining nootkatone was detected in the culture broth. A trace amount of valencene was detected in the extraction solvent.
Dialysis tubing (details described in Example 7) pre-soaked in deionised water, containing n-decane (50 ml) was added to a fungal culture medium containing: culture broth and biomass (100 ml); residual valencene (approximately 150 mg) and the products nootkatol and nootkatone (approx. 3.3 mg combined weight). After 72 h incubation (conditions described in Example 7) 100% of the nootkatol and nootkatone products had been recovered into the n-decane in the dialysis tubing. Valencene was not detected in the n-decane.

[4] = Separation in model membrane reactor across Supor membrane; type: physicochemical; settings: Example 3
Method: as §1

SMILES | amount present in the n-decane phase [2] [mg] | share of amount originally added to the water phase found in n-decane [2] [%] | recovered into the decane [1] | amount recovered into the decane [1] [mg] | recovered into the n-decane ([3]; Example 8) [%] | also measured
CCCCCCC1CO1 (stereo not shown) [1,2-epoxyoctane] |  |  |  |  |  | Rate of flux ([1]; not told): 1.45 g h^−1m^−2 for 1,2-epoxyoctane
C=C(C)C1CC=C(C)C(=O)C1 (stereo not shown) [carvone] | 8 | 40 |  |  |  | solubility (physchem): ~600 µg/mL (≈ 3.99 mM)
C=C(C)[C@H]1CC=C(C)CC1 [limonene] | 2.0 | 2 | 5% | 4.6 |  | 
C=C(C)[C@@H]1CCC2=CC(O)C[C@@H](C)[C@]2(C)C1 (stereo partly shown) [nootkatol] |  |  |  |  | 100 | 
C=C(C)[C@@H]1CCC2=CC(=O)C[C@@H](C)[C@]2(C)C1 [nootkatone] |  |  | component limonene. After 2.5 days, 28% | 1.2 | 100 | recovered from culture broth into n-hexane ([3]; Example 7, culture one (no Tween 80), 48 h, 30° C., 160 rpm): 96%; efficiency of extraction into n-hexane ([3]; Example 7, culture two (with Tween 80 1.3 g), 48 h, 30° C., 160 rpm): 68%; Rate of flux [4]: 0.130 g h^−1m^−2 for nootkatone; Rate of flux ([1]; Example 1, cellulose acetate, thickness 0.05 mm, M.W. cut-off 12-14,000 Da): 0.08 g nootkatone h^−1m^−2. g h^−1m^−2
C=C(C)[C@@H]1CCC2=CCC[C@@H](C)[C@]2(C)C1 [valencene] |  |  |  |  |  | presence in the n-hexane extraction solvent ([3]; Example 7, culture one): not detected; presence in the extraction solvent ([3]; Example 7, culture two (with Tween 80)): trace amount; presence in the n-decane ([3]; Example 8, 72 h): not detected
